Experiments:
[1] = system: IZN36 Q577R (gp41 N-peptide mimic); format: binding, HIV-1 (HXB2 strain); details: Q577R vs. WT IZN36
Description: A Q577R mutant version was generated via site-directed mutagenesis using the QuikChange® protocol (Stratagene). […] The cysteine residues of these constructs were biotinylated for SPR.
Protein interaction analysis was carried out on a Biacore 3000 (GE Healthcare). Analyses were performed in triplicate at 25 °C in sterile-filtered and degassed Gibco® PBS pH 7.4 (Invitrogen) supplemented with 0.005% P20 and 1 mg/mL BSA at a flow rate of 50 μL/min. First, streptavidin (Pierce) was immobilized on CM5 chips (GE Healthcare) using the Amine Coupling Kit (GE Healthcare) following a standard coupling protocol [36]. […] Injections were performed for 1 min using KINJECT. Dissociation was monitored for 2 min, followed by a 20 μL injection (QUICKINJECT) of running buffer followed by EXTRACLEAN. Sensorgrams were processed using Scrubber2 (BioLogic Software), and data were analyzed with Prism 5.0 (GraphPad Software). The equilibrium binding data were fit using the built-in saturation binding model (one site—specific binding), normalized to Bmax, and replotted as concentration of analyte vs. % capacity.

[2] = system: HIV-1 HXB2 Env Q577R pseudotyped HIV-1; format: cell-based; details: for C-peptide inhibition of Q577R compared to WT pseudoviruses: in words
Source text: (§1) Supplementary file 12977_2019_489_MOESM3_ESM.pdf: Additional file 3. Effect of Q577R on C-peptide Inhibitors. Single-cycle viral infectivity assays in which HIV-1 HXB2 Env (WT and Q577R) pseudotyped HIV-1 with a luciferase reporter was used to infect HOS-LES cells in the absence or presence of six fivefold dilutions of the indicated C-peptide (in quadruplicate). The data are the average of two experiments with the standard deviation in parentheses.

[3] = system: enfuvirtide resistance mutations in HIV-1; details: next-generation L-peptide fusion inhibitors; cited from earlier work
Source text: The remarkable conservation of this gp41 hydrophobic pocket target is indicative of its critical roles in the viral life cycle and impedes the ability of the virus to combat inhibitors that target it. The region of the HIV-1 genome encoding the pocket is conserved at both the protein level (for the role of gp41 in membrane fusion during viral entry) and nucleotide level (due to a structured RNA region in the critical Rev-response element). The only FDA-approved HIV fusion inhibitor, enfuvirtide (Fuzeon), is an L-peptide derived from the gp41 C-peptide region that targets the gp41 N-trime ...

[4] = system: HIV-1 HXB2 Env WT pseudotyped HIV-1; format: cell-based; details: HXB2 Env WT pseudotyped HIV-1, luciferase reporter, HOS-LES cells, six fivefold dilutions in quadruplicate; average of two experiments (SD)
Source text: as §1

HIV-1 strain NL4-3 = details: similar passaging studies; cited from earlier work
Source text: This extremely high affinity for the transiently exposed gp41 trimer provides a reserve of binding energy (resistance capacitor) to prevent the viral resistance pathway of stepwise accumulation of modest affinity-disrupting mutations. Such modest mutations would not affect PIE12-trimer potency and therefore not confer a selective advantage. Viral pa ... || We previously reported the selection of HIV-1 populations resistant to PIE12-trimer by passaging the lab-adapted NL4-3 strain in the presence of escalating suboptimal (partially inhibiting) concentrations of inhibitor, starting with 1 nM. Ultimately, PIE12-trimer resistant virus propagating in 320 nM PIE12-trimer was obtained after 65 weeks of passaging. Duplicate selections yielded two highly resistant polyclonal viral pools (W1 and W2). As previously reported, similar passaging studies with enfuvirtide led to high-level resistance (> 1000-fold) within ~ 3 weeks. […] We therefore investigated the growth kinetics of the NL4-3-based replication competent Q577 point mutants and the polyclonal viral pools (W1 and W2) and compared them to that of the native virus (clonal NL4-3, WT).

Q577R HIV-1 = details: other studied HIV-1 strains; cited from earlier work
Source text: (§2) Q577R has also been identified in viral resistance screens against other HIV-1 entry inhibitors that target the prehairpin intermediate. Against N-trimer peptides N44, N36, and IZN36, the C-peptide T2635, and the retrocyclin RC-101, Q577R is found in some or all of the resistant viruses and always accompanied by other gp41 mutation(s). By itself, Q577R provided only modest resistance to the N-trimer and C-peptide inhibitors (< threefold). Viral escape from a recently identified adnectin, 6200_A08, which similarly targets the gp41 hydrophobic pocket, ...

[5] = system: Q577R in patient pre-treatment env; details: patient's pre-treatment env; cited from earlier work
Source text: as §2

HIV-1 = details: in vitro and in vivo; cited from earlier work
Source text: The remarkable conservation of this gp41 hydrophobic pocket target is indicative of its critical roles in the viral life cycle and impedes the ability of the virus to combat inhibitors that target it. The region of the HIV-1 genome encoding the pocket is conserved at both the protein level (for the role of gp41 in membrane fusion during viral entry) and nucleotide level (due to a structured RNA region in the critical Rev-response element). The only FDA-approved HIV fusion inhibitor, enfuvirtide (Fuzeon), is an L-peptide derived from the gp41 C-peptide region that targets the gp41 N-trime ... || Q577R has also been identified in viral resistance screens against other HIV-1 entry inhibitors that target the prehairpin intermediate. Against N-trimer peptides N44, N36, and IZN36, the C-peptide T2635, and the retrocyclin RC-101, Q577R is found in some or all of the resistant viruses and always accompanied by other gp41 mutation(s). By itself, Q577R provided only modest resistance to the N-trimer and C-peptide inhibitors (< threefold). Viral escape from a recently identified adnectin, 6200_A08, which similarly targets the gp41 hydrophobic pocket, ...

Row | Compound | weakening of the interaction [1] | weakening of the interaction (binding energy) [1] | Fold Difference ([2]; IC50 Q577R vs. WT) | C-peptide inhibition of Q577R compared to WT pseudoviruses [2] | impact of enfuvirtide resistance mutations [3] | IC50 ([2]; HXB2 Env Q577R pseudotyped HIV-1, luciferase reporter, HOS-LES cells, six fivefold dilutions in quadruplicate, average of two experiments (SD)) | IC50 [4] | level of resistance on passaging (HIV-1 strain NL4-3) | time to high-level resistance (HIV-1 strain NL4-3) | effect of Q577R on sensitivity (Q577R HIV-1) | resistance provided by Q577R [5] | emergence of gp41 resistance mutations (HIV-1)
1 | CC(=O)N[C@H](Cc1c[nH]cn1)C(=O)N1CCC[C@@H]1C(=O)N[C@@H]1CSSC[C@H](C(=O)N[C@H](CCC(=O)O)C(=O)N[C@H](CC(C)C)C(=O)NCC(=O)N[C@H](CCCCN)C(N)=O)NC(=O)[C@@H](CC(C)C)NC(=O)[C@@H](Cc2c[nH]c3ccccc23)NC(=O)[C@@H](CCC(N)=O)NC(=O)[C@@H](Cc2c[nH]c3ccccc23)NC(=O)[C@@H](CCC(=O)O)NC(=O)[C@H]2CCCN2C(=O)[C@@H](Cc2ccc(O)cc2)NC(=O)[C@@H](CC(=O)O)NC1=O [PIE12] | ~ 65 fold | 2.5 kcal/mol | – | – | – | – | – | – | – | – | – | –
2 | CC[C@H](C)[C@H](NC(=O)[C@H](CCC(N)=O)NC(=O)[C@H](C)NC(=O)[C@H](CCC(N)=O)NC(=O)[C@H](CCC(=O)O)NC(=O)[C@H](CC(C)C)NC(=O)[C@H](CC(C)C)NC(=O)[C@H](C)NC(=O)[C@@H](NC(=O)[C@@H](NC(=O)[C@H](CCCCN)NC(=O)[C@H](CCC(N)=O)NC(=O)[C@H](CCC(=O)O)NC(=O)[C@H](Cc1c[nH]c2ccccc12)NC(=O)[C@H](CCC(=O)O)NC(=O)[C@H](CCC(N)=O)NC(=O)[C@H](Cc1c[nH]c2ccccc12)NC(C)=O)[C@@H](C)CC)[C@@H](C)O)C(=O)N[C@@H](CCC(N)=O)C(=O)N[C@@H](CCC(N)=O)C(=O)N[C@@H](CCC(=O)O)C(=O)N[C@@H](CCCCN)C(=O)N[C@@H](CC(N)=O)C(=O)N[C@@H](CCC(=O)O)C(=O)N[C@@H](Cc1ccc(O)cc1)C(=O)N[C@@H](CCC(=O)O)C(=O)N[C@@H](CC(C)C)C(=O)N[C@@H](CCC(N)=O)C(=O)N[C@@H](CCCCN)C(=O)N[C@@H](CC(C)C)C(=O)N[C@@H](CC(=O)O)C(=O)N[C@@H](CCCCN)C(=O)N[C@@H](Cc1c[nH]c2ccccc12)C(=O)N[C@@H](C)C(=O)N[C@@H](CO)C(=O)N[C@@H](CC(C)C)C(=O)N[C@@H](Cc1c[nH]c2ccccc12)C(=O)N[C@@H](CCC(=O)O)C(=O)N[C@@H](Cc1c[nH]c2ccccc12)C(=O)N[C@@H](Cc1ccccc1)C(N)=O [T1249] | – | – | 1.2 | only modest differences | much less impacted by enfuvirtide resistance mutations | – | – | – | – | – | – | –
3 | enfuvirtide | – | – | – | only modest differences | – | 5.33 nM | 1.62 nM | > 1000 fold | ~ 3 weeks | minimally affected by Q577R | 25 fold | rapid emergence of gp41 resistance mutations

Source: PMC6805555, “Characterization of resistance to a potent D-peptide HIV entry inhibitor” (Retrovirology, 2019)
